How the values were obtained:
Bcl-xLΔ25 = molecular target: T1, Bcl-xLΔ25 (Homo sapiens, UniProt Q07817); assay: Alphascreen GST competition binding assay, benzoylurea compounds vs Biotinylated Bim BH3-26 peptide on GST tagged Bcl-xL ΔC25 protein; conditions: GST tagged Bcl-xL ΔC25 protein 0.6 nM, Biotinylated Bim BH3-26 peptide 5.0 nM, 4 hours at room temperature; n.b. = not binding in the assay conditions
T1 construct: GST tagged Bcl-xL ΔC25 protein

Mcl-1 = Mcl-1 (Homo sapiens, UniProt Q07820); assay: Alphascreen GST competition binding assay, benzoylurea compounds vs Biotinylated Bak BH3 peptide on GST tagged Mcl-1 protein; conditions: GST tagged Mcl-1 protein 0.4 nM, Biotinylated Bak BH3 peptide 4.0 nM, 4 hours at room temperature; n.b. = not binding in the assay conditions
Bcl-wΔ29 = molecular target: T2, Bcl-wΔ29 (Homo sapiens, UniProt Q92843); assay: Alphascreen GST competition binding assay, benzoylurea compounds vs Biotinylated Bim BH3-26 peptide on GST tagged Bclw ΔC29 protein; conditions: GST tagged Bclw ΔC29 protein 0.05 nM, Biotinylated Bim BH3-26 peptide 3.0 nM, 4 hours at room temperature; values marked a tested in a separate experiment; n.b. = not binding in the assay conditions
T2 construct: GST tagged Bclw ΔC29 protein
T2 sequence (Q92843 1-164 limits assumed): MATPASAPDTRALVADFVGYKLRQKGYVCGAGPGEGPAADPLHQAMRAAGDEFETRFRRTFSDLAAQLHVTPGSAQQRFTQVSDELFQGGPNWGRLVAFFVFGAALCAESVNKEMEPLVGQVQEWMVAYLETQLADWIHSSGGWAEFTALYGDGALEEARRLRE

T1 sequence (Q07817 1-208 limits assumed, stated change not applied): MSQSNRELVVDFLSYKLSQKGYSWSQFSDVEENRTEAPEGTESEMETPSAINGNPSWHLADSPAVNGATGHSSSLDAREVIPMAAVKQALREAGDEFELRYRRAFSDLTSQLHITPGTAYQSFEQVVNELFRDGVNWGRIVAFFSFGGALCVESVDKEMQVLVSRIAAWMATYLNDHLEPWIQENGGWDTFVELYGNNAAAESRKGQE
Mcl-1, sequence (Q07820 whole entry, species assumed): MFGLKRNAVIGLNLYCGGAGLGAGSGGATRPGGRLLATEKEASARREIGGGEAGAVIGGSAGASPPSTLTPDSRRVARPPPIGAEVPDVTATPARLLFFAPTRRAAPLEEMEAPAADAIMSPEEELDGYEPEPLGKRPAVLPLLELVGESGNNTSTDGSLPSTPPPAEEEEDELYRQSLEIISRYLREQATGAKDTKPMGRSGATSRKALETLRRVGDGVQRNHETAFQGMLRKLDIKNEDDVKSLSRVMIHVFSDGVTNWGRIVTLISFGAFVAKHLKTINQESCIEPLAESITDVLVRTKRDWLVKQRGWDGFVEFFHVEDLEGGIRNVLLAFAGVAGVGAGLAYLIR

Row | SMILES | IC50 (Bcl-xLΔ25) | IC50 (Mcl-1) | IC50 (Bcl-wΔ29) | Bcl-xLΔ25 IC50 (µM) (Bcl-xLΔ25) | Mcl-1 IC50 (µM) (Mcl-1)
1 | CCCN(C(=O)N[C@@H](CSCC(C)C)C(=O)O)C(=O)c1cccc(-c2ccccc2Cl)c1 [(98)] | 93 µM | 107 µM | 32 µM | – | –
2 | CCCCSC[C@H](NC(=O)N(CCc1ccccc1)C(=O)c1cccc(CCC(C)C)c1)C(=O)O [(114)] | 85 µM | 58 µM | 32 µM | – | –
3 | CCCCSC[C@H](NC(=O)N(Cc1ccccc1)C(=O)c1cccc(CC(C)C)c1)C(=O)O [(111)] | 115 µM | 86 µM | 36 µM | – | –
4 | CC(C)CCc1cccc(C(=O)N(CCc2ccccc2)C(=O)N[C@@H](CSCc2ccccc2)C(=O)O)c1 [(110)] | 85 µM | 64 µM | 37 µM | – | –
5 | CCCSC[C@H](NC(=O)N(CCC)C(=O)c1cccc(-c2ccccc2Cl)c1)C(=O)O [(97)] | 199 µM | 264 µM | 68 µM | – | –
6 | O=C(O)[C@H](CSCc1ccccc1)NC(=O)N(Cc1ccc(Cl)c(Cl)c1)C(=O)c1ccc(-c2ccccc2)cc1 [(85)] | – | 95 µM | 40 µM | n.b.^b | –
7 | CCCN(C(=O)N[C@@H](CSCc1ccccc1)C(=O)O)C(=O)c1ccc(/C=C/c2ccccc2)cc1 [(86)] | 283 µM | – | 82 µM | – | n.b.^b
8 | CCCN(C(=O)Cc1ccccc1)C(=O)N[C@@H](CSCc1ccccc1)C(=O)O [(105)] | 183 µM | 164 µM | 71 µM | – | –
9 | CC(C)Cc1cccc(C(=O)N(CCc2ccccc2)C(=O)N[C@@H](CSCc2ccccc2)C(=O)O)c1 [(108)] | 87 µM | 72 µM | 49 µM | – | –
10 | CCCN(C(=O)N[C@@H](CSCc1ccccc1)C(=O)O)C(=O)c1ccc(CCc2ccccc2)cc1 [(89)] | 86 µM | 107 µM | 50 µM | – | –
11 | CCCN(C(=O)N[C@@H](CSC(C)C)C(=O)O)C(=O)c1cccc(-c2ccccc2Cl)c1 [(99)] | 163 µM | 168 µM | 60 µM | – | –
12 | CCCN(C(=O)N[C@@H](CSCc1ccccc1-c1ccccc1)C(=O)O)C(=O)c1cccc(C#Cc2ccccc2)c1 [(96)] | 153 µM | 133 µM | 52 µM | – | –
13 | CCCCSC[C@H](NC(=O)N(Cc1ccccc1)C(=O)c1cccc(CCC(C)C)c1)C(=O)O [(113)] | 94 µM | 65 µM | 28 µM | – | –
14 | CCCN(C(=O)Cc1cccc(-c2ccccc2)c1)C(=O)N[C@@H](CSCc1ccccc1)C(=O)O [(104)] | 187 µM | 267 µM | 205 µM | – | –
15 | CCCCSC[C@H](NC(=O)N(CCc1ccccc1)C(=O)c1cccc(CC(C)C)c1)C(=O)O [(112)] | 119 µM | 112 µM | 40 µM | – | –

The remaining compounds from weak to strong by IC50 (Bcl-xLΔ25), led by results:

Row | IC50 (Bcl-xLΔ25) | IC50 (Mcl-1) | IC50 (Bcl-wΔ29) | Bcl-xLΔ25 IC50 (µM) (Bcl-xLΔ25) | Mcl-1 IC50 (µM) (Mcl-1) | SMILES
16 | 81 µM | 65 µM | 29 µM | – | – | CC(C)CCc1cccc(C(=O)N(Cc2ccccc2)C(=O)N[C@@H](CSCc2ccccc2)C(=O)O)c1 [(109)]
17 | 70 µM | 73 µM | 37 µM | – | – | CC(C)Cc1cccc(C(=O)N(Cc2ccccc2)C(=O)N[C@@H](CSCc2ccccc2)C(=O)O)c1 [(107)]
18 | 53 µM | 36 µM | 18 µM | – | – | CCCN(C(=O)N[C@@H](CSCc1ccccc1-c1ccccc1)C(=O)O)C(=O)c1cccc(-c2ccccc2Cl)c1 [(103)]
19 | 50 µM | 51 µM | 18 µM | – | – | CCCN(C(=O)N[C@@H](CSCCCc1ccccc1)C(=O)O)C(=O)c1cccc(-c2ccccc2Cl)c1 [(102)]
20 | 48 µM | 52 µM | 18 µM | – | – | CCCN(C(=O)N[C@@H](CSc1ccccc1)C(=O)O)C(=O)c1cccc(-c2ccccc2Cl)c1 [(100)]
21 | 44 µM | – | – | – | n.b.^b | CCCN(C(=O)N[C@@H](CSCC(C)C)C(=O)O)C(=O)c1cccc(C#Cc2cccc(F)c2)c1 [(140)]
22 | 42 µM | 55 µM | 19 µM | – | – | CCCN(C(=O)N[C@@H](CSCCc1ccccc1)C(=O)O)C(=O)c1cccc(-c2ccccc2Cl)c1 [(101)]
23 | 39 µM | 66 µM | – | – | – | CCCN(C(=O)N[C@@H](CSCC(C)C)C(=O)O)C(=O)c1cccc(C#Cc2cccc(C)c2)c1 [(144)]
24 | 36 µM | – | 67 µM | – | n.b.^b | CCCN(C(=O)N[C@@H](CSC(C)C)C(=O)O)C(=O)c1cccc(C#Cc2ccccc2)c1 [(92)]
25 | 32 µM | 57 µM | – | – | – | CCCN(C(=O)N[C@@H](CSCc1ccccc1)C(=O)O)C(=O)c1cccc(C#Cc2ccccc2[N+](=O)[O-])c1 [(135)]
26 | 28 µM | 84 µM | – | – | – | CCCN(C(=O)N[C@@H](CSCC(C)C)C(=O)O)C(=O)c1cccc(C#Cc2cccc(Cl)c2)c1 [(141)]
27 | 28 µM | 80 µM | – | – | – | CCCN(C(=O)N[C@@H](CSCC(C)C)C(=O)O)C(=O)c1cccc(C#Cc2ccc(Br)cc2)c1 [(139)]
28 | 27 µM | 169 µM | 45 µM | – | – | Cc1ccc(CN(C(=O)N[C@@H](CSCc2ccccc2)C(=O)O)C(=O)c2ccc(-c3ccccc3)cc2)cc1 [(82)]
29 | 27 µM | 53 µM | 26 µM | – | – | CCCN(C(=O)N[C@@H](CSc1ccccc1)C(=O)O)C(=O)c1cccc(C#Cc2ccccc2)c1 [(93)]
30 | 26 µM | 146 µM | – | – | – | CCCN(C(=O)N[C@@H](CSCC(C)C)C(=O)O)C(=O)c1cccc(C#Cc2ccc(Cl)cc2)c1 [(138)]
31 | 23 µM | 46 µM | 19 µM | – | – | CCCN(C(=O)N[C@@H](CSCCc1ccccc1)C(=O)O)C(=O)c1cccc(C#Cc2ccccc2)c1 [(94)]
32 | 23 µM | 204 µM | – | – | – | CCCN(C(=O)N[C@@H](CSCc1ccccc1)C(=O)O)C(=O)c1cccc(C#CCC(C)C)c1 [(136)]
33 | 22 µM | 70 µM | 39 µM | – | – | CCCSC[C@H](NC(=O)N(CCC)C(=O)c1cccc(C#Cc2ccccc2)c1)C(=O)O [(90)]
34 | 16 µM | 92 µM | 32 µM | – | – | CCCN(C(=O)N[C@@H](CSCC(C)C)C(=O)O)C(=O)c1cccc(C#Cc2ccccc2)c1 [(91)]
35 | 14 µM | 77 µM | 35 µM | – | – | COc1ccc(CN(C(=O)N[C@@H](CSCc2ccccc2)C(=O)O)C(=O)c2ccc(-c3ccccc3)cc2)cc1 [(83)]
36 | 11 µM | 61 µM | 27 µM | – | – | O=C(O)[C@H](CSCc1ccccc1)NC(=O)N(Cc1ccc(Cl)cc1)C(=O)c1ccc(-c2ccccc2)cc1 [(84)]
37 | 9.5 µM | 132 µM | – | – | – | CCCN(C(=O)N[C@@H](CSCC(C)C)C(=O)O)C(=O)c1cccc(C#Cc2ccc(F)cc2)c1 [(137)]
